Data: patent publication US20070122870A1, “Method for water testing and devices and kit of components for use in such a method” (priority 2003, published 2007)
Entries after “also recorded” stand apart in the source; their conditions may differ.

Columns and labels:
V. natriegens [1] = experiment: LIVE/DEAD BacLight membrane integrity, closed cultures; assay type: cell-based, Vibrio natriegens; settings: closed culture
Description: (§1) (viii) Two ready-to-use commercial kits to assess cell viability (ProCheck™ Cell Viability Assay) and membrane integrity (LIVE/DEAD® BacLight™ Bacterial Viability Kit) were tested and adapted for using during ECOALERT experiments.
(§2) ProCheck™ is designed to measure the amount of viable, metabolising cells in a sample, and LIVE/DEAD® BacLight™ distinguish live and dead bacteria As a preliminary test, the two kits were tested in a volumetric series of mixtures of two bacterial types of V. natriegens: live, exponentially growing bacteria and dead bacteria killed by autoclaving an aliquot of the same culture. The colorimetric signal indicating cell viability (ProCheck™) and the fluorimetric signal indicating membrane integrity (LIVE/DEAD® BacLight™) increased linearly with the proportion of live bacteria in the mixture.

V. natriegens [2] = experiment: Respiration (CTC fluorescence) in closed cultures; assay type: cell-based, Vibrio natriegens; settings: closed culture; for respiration: compared to the non-toxic control
Description: (vi) The application of the redox dye CTC (5-cyano-2,3-ditolyl tetrazolium chloride, Polysciences Europe) was developed to direct fluorimetric determination of respiration in bacterial suspensions. […] Traditionally, CTC has been used with flow cytometry and epifluorescence microscopy, combined with DAPI to counterstain total cells. However, its application to bacterioplankton remains controversial.
An exponentially growing culture of V. natrigens was incubated with the redox dye CTC following the standard procedure (2.0 mM final concentration, 4 h at 28° C.) and samples were taken every 30 minutes to count total cells and CTC+ cells in the microscope.
(§3) (viii) The effect of a range of contaminants on growth dynamics and sub-cellular bioindicators in closed cultures of V. natriegens was studied: […]

V. natriegens [3] = experiment: Growth dynamics (optical density, cell concentration) in closed cultures; assay type: cell-based, Vibrio natriegens; settings: closed culture; for bacterial growth (growth curve, growth rate, optical density, cell concentration): compared to the non-toxic control
Source text: (ii) Sterile, 12-ml capacity, screw-capped, clear polystyrene test tubes (Starstedt) were selected as the most appropriate closed system for use in ECOALERT experiments. These test tubes are ideal for short-term cell culturing where aeration is not critical. Also, the optical density of the culture can be read as often as desired, by simply inserting the same tube in a spectrophotometer, thus avoiding contamination risks and reducing analysis time.
(viii) The effect of a range of contaminants on growth dynamics and sub-cellular bioindicators in closed cultures of V. natriegens was studied:
(xi) The sensitivity of cultures of V. natriegens to a range of contaminants in closed laboratory experimental systems was studied at specified toxic concentrations and time scales.

bacterial culture = experiment: ECOALERT assay, ratio respiration/growth (CTC/TRB); assay type: cell-based; settings: compared to the control
Description: Two bacterial endpoints were chosen based on the results from Example 2: growth and respiration. Growth is an endpoint at population level and is estimated by measuring in vivo optical density (OD) or turbidity (TRB). Respiration is an endpoint at subcellular level and is measured by the fluorescence emitted by actively respiring bacteria, using the CTC redox dye.
To assess OD, TRB and CTC as indicators of toxicity a series of ECOALERT assays were carried out on a wide range of chemical substances, with special attention to common pharmaceuticals but also including some contaminants cited in the OSPAR list for priority action (OSPAR 2000). The concentrations tested were based on toxicological and environmental levels, where this information was available.
Even when no clear effect could be observed in the CTC indicator alone, there was an advantage in using the bacterial indicators OD (or TRB) and CTC simultaneously. That was because it was possible to use the ratio respiration/growth, which is an estimator of the proportion of respiring or active bacteria in the population, as an indirect indicator of the health of the population.

caged Pseudomonas sp. [4] = experiment: Growth limitation (OD) of caged bacteria in dialysis tubes; assay type: cell-based
Description: On the night before the experiment, a number of 2-litre HDPE bottles, one bottle per toxicity treatment, were filled with water (3/4 seawater 1-μm filtered, 1/4 distilled water). The bottles were kept at 15° C. stirring at low speed.
The dialysis tubes, which are supplied soaked in sodium azide, were rinsed throughly, refilled with distilled water and UV-irradiated for 10 minutes to ensure sterility.
Also the night before, a fresh culture of bacteria was inoculated from the original stock in liquid diluted medium.
Before starting the toxicity assay, the bottles were spiked with the contaminant and buffered to pH 7.3. At the same time, a fresh volume of diluted medium was inoculated from the culture grown overnight and kept for ˜2 hours at 15° C. until the growth rate picked up again and OD540 approached 0.005.
Then, the dialysis tubes were emptied of the water and four of them topped up with the bacterial culture, plus one blank tube with medium-only (no bacteria), and placed into the bottle to start the assay. Each bottle could hold 5 dialysis tubes floating upright.
The stirring was kept low and at time intervals samples were removed from the tubes with sterile pipettes to measure the different bacterial indicators.
(ix) The growth dynamics of toxic cultures of caged Pseudomonas sp. were studied. The effect of toxicity on the growth of caged bacteria was studied in several assays where different concentrations of contaminants were added to the water of the tanks.

caged Pseudomonas sp. [5] = experiment: Respiration indicator (CTC) in toxic caged cultures; assay type: cell-based; settings: caged toxicity assays
Source text: Respiration. Respiration was estimated with the redox dye CTC (Polysciences) as values of fluorescent intracellular formazan.
(§4) (x) Bacterial sub-cellular indicators (DNA, respiration, membrane integrity and viability) were studied in toxic cultures of caged Pseudomonas sp.

V. natriegens [6] = experiment: DNA (thymidine uptake) and protein (leucine uptake) synthesis in closed cultures; assay type: cell-based, Vibrio natriegens; settings: closed culture; for protein synthesis / DNA synthesis: compared to the control
Description: (iv) The application of the 3H-leucine method of Smith and Azam (Marine Microbial. Food Webs. 6(2), 107-114, 1992) was developed and also used with 3H-thymidine to estimate bacterial production. The synthesis of DNA (thymidine uptake) and protein (leucine uptake) was studied in V. natriegens closed cultures. In non-toxic cultures the uptake of both radiotracers by the bacteria reaches maximal values between 4 and 8 hours of the experiment, coinciding with the log-phase of the growth curve.
as §3

V. natriegens [7] = experiment: ProCheck cell viability assay, closed cultures; assay type: cell-based, Vibrio natriegens; settings: closed culture, compared with the non-toxic control
Description: as §1, §2

caged Pseudomonas sp. [8] = experiment: Bacterial DNA indicator (PicoGreen) in toxic caged cultures; assay type: cell-based; settings: caged toxicity assays
Source text: Bacterial DNA. To improve the detection of bacterial DNA in culture samples, the PicoGreen double-strand DNA (dsDNA) reagent (Molecular Probes) was used instead of DAPI. PicoGreen reagent is more sensitive to small changes in the DNA content of bacterial cultures, resulting in a good correlation with OD.
as §4

Pseudomonas = experiment: ECOALERT deployment in controlled flow-through system, respiration (CTC fluorescence); assay type: cell-based; settings: after 72 hours; 50 ppb BPH, 5 ppb TBDE; 7.5° C.
Source text: The experimental setup involved 16 tanks (4 animal species 4 exposure treatments) connected in a flow-through system with a direct intake of seawater from 80 m depth in the Stavanger fjord, outside the laboratory. For each one of the test animals, three tanks were connected to a chemostate system which maintained a constant concentration of each of the following chemicals: 50 ppb bisphenol A (BPH), 50 ppb diallyl phthalate (DAP), and 5 ppb tetrabromodiphenylether or PBDE-47 (TBDE). The forth tank had no chemical supply and was used as control. ECOALERT was deployed in the mussel tanks, one basket per tank. The water conditions in all the tanks were: 7.5° C. temperature, pH 7.78 and […].
Each deploying basket of ECOALERT was equipped with 3 dialysis tubes with Pseudomonas, 3 tubes filled with Vibrio natriegens and 3 dialysis tubes with medium-only without cells. Each dialysis tube was repeatedly sampled at 1, 24, 48 and 72 hours. Due to the low temperature of the water (7.5° C.) a low bacterial growth rate was expected and because of that the duration of the experiment was expanded to 72 hours. At every time-point, growth and respiration activity of the bacteria were measured as turbidity and CTC fluorescence respectively using the handheld CTC fluorometer/turbidimeter. […]

[9] = compared with the non-toxic control

CC(C)(c1cc(Br)c(O)c(Br)c1)c1cc(Br)c(O)c(Br)c1 [TBBA]
membrane integrity (LIVE/DEAD BacLight) (V. natriegens [1]; stationary phase): membrane damage
increase in cellular respiration (ratio respiration/optical density) (V. natriegens [2]; average): more than 90%
respiration (V. natriegens [2]): sudden and important increase in respiration; also recorded: notable increase of respiration

c1cc2ccc3cccc4ccc(c1)c2c34 [Pyrene, pyrene]
membrane integrity (LIVE/DEAD BacLight) (V. natriegens [1]; stationary phase): loss of membrane integrity
bacterial growth (growth curve, growth rate, optical density, cell concentration) (V. natriegens [3]): no other effect was observed
increase in respiration (V. natriegens [2]; average): 14%

NC(=O)N1c2ccccc2C=Cc2ccccc21 [carbamazepine, reference compound]
CTC/TRB ratio (bacterial culture): initial positive effect

mercury [Hg]
growth limitation (caged Pseudomonas sp. [4]; 2 mg/L, 4 hours): Up to 60%
respiration as indicator of toxicity (caged Pseudomonas sp. [5]): most sensitive indicator of toxicity

[Ni] [Ni, nickel]
growth limitation (caged Pseudomonas sp. [4]; 5 mg/L, end of a 9-h assay): 51%
growth limitation (caged Pseudomonas sp. [4]; 20 mg/L, after 9 hours): 69%
effect on growth (caged Pseudomonas sp. [4]; below 0.5 mg/L): seemed to favour growth

c1ccc2c(c1)ccc1ccccc12 [Phenanthrene, phenanthrene]
bacterial growth (growth curve, growth rate, optical density, cell concentration) (V. natriegens [3]): did not affect bacterial growth significantly; also recorded: no major effect
respiration (V. natriegens [2]): No effect
protein synthesis (V. natriegens [6]): doubled; also recorded: small initial stimulation
DNA synthesis rates higher than control (V. natriegens [6]; on average): 30%

[Cu] [Cu, copper]
membrane integrity (LIVE/DEAD BacLight) (V. natriegens [1]; [9]): damage of membranes
cell viability (ProCheck) (V. natriegens [7]): affecting cell viability
bacterial growth (growth curve, growth rate, optical density, cell concentration) (V. natriegens [3]): notable slow down of the growth curve; also recorded: very conspicuous and instantaneous reduction
bacterial growth (growth curve, growth rate, optical density, cell concentration) (V. natriegens [3]; listed as copper): nearly ceased
respiration (V. natriegens [2]): very conspicuous and instantaneous reduction
respiration (V. natriegens [2]; listed as copper): nearly ceased
DNA synthesis (V. natriegens [6]): nearly ceased
protein synthesis (V. natriegens [6]): nearly ceased
growth limitation (caged Pseudomonas sp. [4]; 20 mg/L, after 9 hours): 56%
effect on growth (caged Pseudomonas sp. [4]; additions under 0.1 mg/L): enhancing effect on growth
growth limitation (caged Pseudomonas sp. [4]; assays 1 (doses 0.001-10 mg Cu/L) and 2 (doses 0.02-20 mg Cu/L)): < 50%
DNA as indicator of toxicity (caged Pseudomonas sp. [8]): could not detect limitation

Cl[C@H]1[C@H](Cl)[C@@H](Cl)[C@@H](Cl)[C@H](Cl)[C@H]1Cl [Lindane]
bacterial growth (growth curve, growth rate, optical density, cell concentration) (V. natriegens [3]): transient, rather subtle stimulation; also recorded: transient, faint stimulation
respiration (V. natriegens [2]): transient, rather subtle stimulation; also recorded: transient, faint stimulation

CC(C)(c1ccc(O)cc1)c1ccc(O)cc1 [BPH, bisphenol A]
bacterial respiration (Pseudomonas): clear negative effect; also recorded: had an impact on bacteria

[Cd] [Cd, cadmium]
growth limitation (caged Pseudomonas sp. [4]; 20 mg Cd/L, after 4 hours of exposure): 59%
growth limitation (caged Pseudomonas sp. [4]; lower Cd treatments): did not cause any clear limitation of bacterial growth
respiration as indicator of toxicity (caged Pseudomonas sp. [5]): most sensitive indicator of toxicity

dodecylbenzensulfonic acid sodium salt [detergent]
membrane integrity (LIVE/DEAD BacLight) (V. natriegens [1]; [9]): progressive damage of cellular membranes with time
membrane integrity (LIVE/DEAD BacLight) (V. natriegens [1]; stationary phase): deleterious effect on membranes
size of bacteria (V. natriegens [3]; compared to control bacteria, sodium salt): progressively reduced their size; also recorded: reduces
bacterial growth (growth curve, growth rate, optical density, cell concentration) (V. natriegens [3]; sodium salt): increased over the control; also recorded: seems to enhance
reduction in bacterial numbers (V. natriegens [3]; instant): 10 fold
respiration (V. natriegens [2]; sodium salt): contrary to that of the non-toxic control; also recorded: seems to enhance
reduction in respiration (V. natriegens [2]; instant): 10 fold
DNA synthesis (V. natriegens [6]): increased slightly over the control
protein synthesis (V. natriegens [6]; sodium salt): inhibited but seems to recover after 48 h

[Zn] [zinc]
growth limitation (caged Pseudomonas sp. [4]; 50 mg/L, after 4 h): 51%
toxicity / effect on growth (caged Pseudomonas sp. [4]; first experiment, doses between 0.05-5 mg/L): No significant toxicity; also recorded: positive effect in most of the treatments
DNA as indicator of toxicity (caged Pseudomonas sp. [8]): sensitive indicator of toxicity

[Pb] [lead]
growth limitation (caged Pseudomonas sp. [4]; 2 mg/L, 4 hours): 52%
respiration as indicator of toxicity (caged Pseudomonas sp. [5]): most sensitive indicator of toxicity

Oc1c(Cl)c(Cl)c(Cl)c(Cl)c1Cl [PCP]
CTC/TRB ratio (bacterial culture): loss of respiring cells

Brc1cccc(Oc2ccc(Br)c(Br)c2Br)c1 [TBDE, tetrabromodiphenylether]
bacterial respiration (Pseudomonas): possible positive effect
